Measured values taken from US20220315890A1, “NERVE CELL AND APPLICATION THEREOF” (FUJIFILM Corporation, priority 2021, published 2022).

Columns and labels:
[1] = target: T1, tau aggregation in hiPSC-derived nerve cells overexpressing tau (1N4R) (Homo sapiens, UniProt P10636); test: Tau aggregation: Tau oligomer antibody (T22)-positive protrusion length standardized with 4R tau antibody-positive protrusion length; format: cell-based; conditions: at the compound concentration at which a cytoprotective action was exhibited; fluorescent staining; FIG. 8
T1 construct: expressed in transfected cells; host or cells: human iPS cell-derived nerve cells (Ngn2 / miR-9/9*-124 induced), transduced with CSII-TRE-hTau (1N4R)-IRES-Zeo lentivirus, DOX-induced
T1 sequence (P10636 1-412 isoform P10636-7): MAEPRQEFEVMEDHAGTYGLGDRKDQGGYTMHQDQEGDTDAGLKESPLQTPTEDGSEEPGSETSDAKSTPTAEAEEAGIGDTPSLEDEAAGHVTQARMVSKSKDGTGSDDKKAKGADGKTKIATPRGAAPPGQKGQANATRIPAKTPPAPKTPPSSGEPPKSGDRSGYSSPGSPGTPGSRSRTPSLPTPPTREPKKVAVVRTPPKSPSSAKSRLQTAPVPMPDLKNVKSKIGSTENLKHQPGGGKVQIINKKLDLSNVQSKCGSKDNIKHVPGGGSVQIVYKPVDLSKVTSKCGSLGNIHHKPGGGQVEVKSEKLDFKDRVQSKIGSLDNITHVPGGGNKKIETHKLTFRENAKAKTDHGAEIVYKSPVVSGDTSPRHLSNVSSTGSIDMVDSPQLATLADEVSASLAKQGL
Protocol: (§1) Frozen nerve cells were thawed in a hot water bath and plated on a 96-well plate at the number of cells of about 3×10^4 cells/well or on a 12-well plate at about 30×10^4 cells/well, where the plates had been coated with poly-D-lysine (PDL) and iMatrix (Nippi, Incorporated), in a neural replating medium containing DOX (a medium obtained by adding 2% of a B27 Plus supplement, 1% of a Culture One supplement, 200 μmol/L of dbcAMP, 200 μmol/L of L-ascorbic acid, and 2 μg/mL of DOX to a Neurobasal plus:DMEM/F12 HAM=1:1 medium). In addition, 1 μmol/L of Tau Accell siRNA (Dharmacon, Inc., #A-012488-13) described in (7) below or a compound described in (9) below was added thereto. After the culture in a CO2 incubator at 37° C. for 2 days, the cells were […] and cultured for about 7 days, and then various evaluations were carried out.
The nerve cells after the overexpression of tau according to the method (4) were subjected to fluorescent staining using a tau oligomer antibody (T22) (Merck Millipore).
The cytoprotective action of the compound was measured by a CellTiter Glo assay. The effect on tau aggregation was quantified by standardizing the Tau oligomer antibody-positive protrusion length in the neurite obtained by fluorescent staining with the 4R tau antibody-positive protrusion length.

[2] = tested on: hiPSC-derived nerve cells overexpressing tau (1N4R); test: Nerve cell death / cell survival by CellTiter Glo assay after overexpression of tau; format: cell-based, human; conditions: compound added at replating, 2 days before lentivirus infection, cultured about 7 days, FIG. 8
Protocol: as §1
The decrease in cell survival rate due to overexpression of tau according to the method (4) was confirmed by the CellTiter Glo assay (Promega Corporation). It was confirmed that about 20% to 90% of nerve cell death occurred due to overexpression of tau depending on the amount of lentivirus.
According to the method (4), the drug efficacy of methylene blue and isoproterenol, which had been reported to have an inhibitory action on tau aggregation in nerve cells after the overexpression of tau, and a microtubule stabilizer epothilone D was evaluated. The cytoprotective action of the compound was measured by a CellTiter Glo assay. The effect on tau aggregation was quantified by standardizing the Tau oligomer antibody-positive protrusion length in the neurite obtained by fluorescent staining with the 4R tau antibody-positive protrusion length.

SMILES | effect on tau aggregation (tau polymerization) [1] | cytoprotective action (CellTiter Glo assay) [2]
C/C1=C/C[C@@H](/C(C)=C/c2csc(C)n2)OC(=O)C[C@H](O)C(C)(C)C(=O)[C@H](C)[C@@H](O)[C@@H](C)CCC1 [epothilone D] | not changed | partial cytoprotective action
CC(C)NCC(O)c1ccc(O)c(O)c1 (stereo not drawn) [isoproterenol] | partial inhibitory action on tau aggregation | partial cytoprotective action
CN(C)c1ccc2nc3ccc(=[N+](C)C)cc-3sc2c1 [methylene blue] | partial inhibitory action on tau aggregation | partial cytoprotective action
